Experimental data reported in patent US8962639B2, “Potassium channel modulators” (AbbVie Inc., priority 2009, dated 2015).

Molecular target: T1, human KCNQ2 and KCNQ3 (Homo sapiens, UniProt O43525+O43526)
T1 construct: expressed in transfected cells; host or cells: HEK293
Test: KCNQ 2/3 channel activation, thallium flux FLIPR assay (BTC-AM dye) in HEK293 cells
Type: cell-based
Settings: for Emax: HEK293, maximum response relative to response of retigabine at 10 μM set at 100%, read-out: Max response; for EC50: HEK293 cells stably expressing human KCNQ2 and KCNQ3, compound incubated 4 minutes, Tl+ flux fluorescence; for Max response: maximum response relative to response of retigabine at 10 μM set at 100%
Protocol: The following example describes the assay that can be used to identify compounds that activate KCNQ 2/3 channels.
HEK293 cells stably expressing human KCNQ2 and KCNQ3 were seeded in 96-well, black-walled, clear-bottomed, poly-D-lysine coated plates (BD Biosciences, Bedford, Mass.) at a density of 1×10^5 cells per well 24 hours before the assay. On the assay day, BTC-AM dye (Invitrogen, Carlsbad, Calif.) was loaded into the cells by replacing the cell culture medium with 100 μL/well of 4 μM dye in DPBS. Dye loading was allowed to proceed for 2 hours at room temperature and then cells were washed twice in 100 μL/well of assay buffer (in mM: 10 HEPES pH 7.3, 5 glucose, 140 Na-gluconate, 2.5 K-gluconate, 3.6 Ca-gluconate, 2 MgSO4, 0.1 Ouabain) to remove unloaded dye. Cells were incubated in 50 μL of assay buffer before loading onto a FLIPR system (Molecular Devices, Sunnyvale, Calif.). Various concentrations of compounds to be assayed were added to the cells in 50 μL of assay buffer and incubated for 4 minutes. The fluorescence signal was initiated by adding 100 μL of assay buffer containing 6 mM TlNO3 and 10 mM K2SO4. Fluors were excited using the 488-nm line of an argon laser and emission was filtered using a 540±30 nm bandpass filter. Fluorescent signals were recorded for 3 minutes. Responses over baseline values were plotted versus concentrations of test compounds to obtain an EC50 value. The maximum response for each test compound was determined relative to the response produced at 10 μM by retigabine. The maximum response of retigabine at 10 μM was set at 100%.

T1 sequence (O43526 whole entry): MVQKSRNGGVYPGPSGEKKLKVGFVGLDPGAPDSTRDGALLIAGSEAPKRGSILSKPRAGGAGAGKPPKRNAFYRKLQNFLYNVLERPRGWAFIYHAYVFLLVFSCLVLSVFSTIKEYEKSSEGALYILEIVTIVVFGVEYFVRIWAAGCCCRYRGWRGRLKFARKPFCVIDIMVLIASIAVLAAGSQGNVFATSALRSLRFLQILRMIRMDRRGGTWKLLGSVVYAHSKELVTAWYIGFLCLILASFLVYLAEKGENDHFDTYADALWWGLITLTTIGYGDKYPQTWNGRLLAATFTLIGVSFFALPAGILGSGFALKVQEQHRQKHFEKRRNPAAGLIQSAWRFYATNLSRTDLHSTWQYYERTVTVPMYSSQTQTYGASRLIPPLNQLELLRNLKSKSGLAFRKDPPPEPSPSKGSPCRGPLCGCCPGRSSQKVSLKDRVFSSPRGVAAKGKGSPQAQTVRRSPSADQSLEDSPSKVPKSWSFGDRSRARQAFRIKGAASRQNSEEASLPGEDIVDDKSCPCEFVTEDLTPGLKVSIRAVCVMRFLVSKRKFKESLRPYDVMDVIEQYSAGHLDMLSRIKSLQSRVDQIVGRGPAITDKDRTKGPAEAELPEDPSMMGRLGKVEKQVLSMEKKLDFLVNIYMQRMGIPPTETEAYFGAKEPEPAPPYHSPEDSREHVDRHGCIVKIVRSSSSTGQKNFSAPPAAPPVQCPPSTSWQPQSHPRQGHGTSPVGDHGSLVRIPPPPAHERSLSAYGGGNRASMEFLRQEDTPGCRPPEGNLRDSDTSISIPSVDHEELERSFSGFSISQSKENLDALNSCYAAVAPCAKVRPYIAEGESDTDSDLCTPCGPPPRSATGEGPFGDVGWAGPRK
T1 sequence (O43525 whole entry): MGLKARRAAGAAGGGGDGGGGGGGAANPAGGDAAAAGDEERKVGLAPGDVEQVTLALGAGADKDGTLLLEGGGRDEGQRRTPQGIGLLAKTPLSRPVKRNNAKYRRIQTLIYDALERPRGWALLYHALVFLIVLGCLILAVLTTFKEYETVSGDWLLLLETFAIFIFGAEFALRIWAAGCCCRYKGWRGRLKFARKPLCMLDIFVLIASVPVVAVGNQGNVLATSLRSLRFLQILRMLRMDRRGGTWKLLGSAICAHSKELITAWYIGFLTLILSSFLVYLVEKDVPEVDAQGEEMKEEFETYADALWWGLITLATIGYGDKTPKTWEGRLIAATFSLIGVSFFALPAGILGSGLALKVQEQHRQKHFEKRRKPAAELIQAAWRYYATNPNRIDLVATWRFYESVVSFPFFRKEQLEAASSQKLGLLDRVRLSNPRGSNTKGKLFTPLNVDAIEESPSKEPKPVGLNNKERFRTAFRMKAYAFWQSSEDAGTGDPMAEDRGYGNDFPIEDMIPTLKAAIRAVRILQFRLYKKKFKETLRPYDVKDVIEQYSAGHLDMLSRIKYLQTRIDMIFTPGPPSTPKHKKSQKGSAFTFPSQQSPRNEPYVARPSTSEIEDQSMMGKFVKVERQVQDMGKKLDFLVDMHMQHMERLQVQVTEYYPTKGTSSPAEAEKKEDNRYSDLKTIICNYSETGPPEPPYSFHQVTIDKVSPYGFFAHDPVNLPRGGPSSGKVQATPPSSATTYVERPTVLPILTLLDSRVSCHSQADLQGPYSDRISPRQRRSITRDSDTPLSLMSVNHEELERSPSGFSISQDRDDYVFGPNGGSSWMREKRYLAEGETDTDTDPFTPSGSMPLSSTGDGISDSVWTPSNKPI

Emax [%] | EC50 [µM] | Max response [%] | Structure (SMILES)
16.5 | > 31.6 | – | CC(C)c1nc2ccccc2c(=O)n1NC(=O)[C@@H]1[C@H]2[C@@H]3CC[C@@H](C3)[C@@H]12 [Example 59, (exo,exo)-N-(2-isopropyl-4-oxoquinazolin-3(4H)-yl)tricyclo[3.2.1.0^2,4]octane-3-carboxamide]
58 | > 31.6 | – | CC(C)c1nc2ccccc2c(=O)n1NC(=O)C[C@@H]1C[C@@H]2CC(=O)C[C@@H](C2)C1 [Example 60]
19.2 | > 30 | – | CC(C)Sc1nc2sc(-c3ccccc3)cc2c(=O)n1NC(=O)CC12CC3CC(CC(C3)C1)C2 [Example 40, 2-(1-adamantyl)-N-[2-(isopropylthio)-4-oxo-6-phenylthieno[2,3-d]pyrimidin-3(4H)-yl]acetamide]
19.6 | > 31.6 | – | Cc1nc2sc3c(c2c(=O)n1NC(=O)CC12CC4CC(CC(C4)C1)C2)CCC3 [Example 45, 2-(1-adamantyl)-N-(2-methyl-4-oxo-6,7-dihydro-4H-cyclopenta[4,5]thieno[2,3-d]pyrimidin-3(5H)-yl)acetamide]
103 | 0.341 | – | O=C(CC12CC3CC(CC(C3)C1)C2)Nn1c(-c2ccccc2)nc2ccccc2c1=O [Example 6, 2-(1-adamantyl)-N-(4-oxo-2-phenylquinazolin-3(4H)-yl)acetamide]
– | 0.0477 | 145 | CC(C)c1nc2ccccc2c(=O)n1NC(=O)CC1CC2CCC1C2 (single isomer, unassigned; (+)) [Example 30, (+)-exo-2-[bicyclo[2.2.1]hept-2-yl]-N-(2-isopropyl-4-oxoquinazolin-3(4H)-yl)acetamide]
130 | 2.28 | – | O=C(C[C@@H]1C[C@@H]2C=C[C@H]1C2)Nn1c(-c2ccccc2)nc2ccccc2c1=O (racemic) [Example 19, (±)-endo-2-bicyclo[2.2.1]hept-5-en-2-yl-N-(4-oxo-2-phenylquinazolin-3(4H)-yl)acetamide]
10.8 | > 30 | – | O=C(CC12CC3CC(CC(C3)C1)C2)Nn1cnc2ccc(Br)cc2c1=O [Example 36, 2-(1-adamantyl)-N-(6-bromo-4-oxoquinazolin-3(4H)-yl)acetamide]
109 | 7.91 | – | CCc1nc2sccc2c(=O)n1NC(=O)CC12CC3CC(CC(Cl)(C3)C1)C2 [Example 52, 2-[3-chloro-1-adamantyl]-N-(2-ethyl-4-oxothieno[2,3-d]pyrimidin-3(4H)-yl)acetamide]
89.8 | 10.9 | – | Cc1nc2sc3c(c2c(=O)n1NC(=O)CC12CC4CC(CC(C4)C1)C2)CCCCC3 [Example 48, 2-(1-adamantyl)-N-(2-methyl-4-oxo-6,7,8,9-tetrahydro-4H-cyclohepta[4,5]thieno[2,3-d]pyrimidin-3(5H)-yl)acetamide]
– | 0.0906 | 175 | CC(C)c1nc2ccccc2c(=O)n1NC(=O)CC1CC2CCC1C2 (racemic) [Example 11, (±)-exo-2-bicyclo[2.2.1]hept-2-yl-N-(2-isopropyl-4-oxoquinazolin-3(4H)-yl)acetamide]
120 | 0.691 | – | CCc1nc2sccc2c(=O)n1NC(=O)CC12CC3CC(CC(C3)C1)C2 [Example 14, 2-(1-adamantyl)-N-(2-ethyl-4-oxothieno[2,3-d]pyrimidin-3(4H)-yl)acetamide]
65.2 | 0.779 | – | Cc1sc2nc(C)n(NC(=O)CC34CC5CC(CC(C5)C3)C4)c(=O)c2c1C [Example 49, 2-(1-adamantyl)-N-(2,5,6-trimethyl-4-oxothieno[2,3-d]pyrimidin-3(4H)-yl)acetamide]
150 | 0.386 | – | CCc1nc2ccccc2c(=O)n1NC(=O)CC1CC2CCC1C2 (racemic) [Example 43, (±)-2-[(endo)-bicyclo[2.2.1]hept-2-yl]-N-(2-ethyl-4-oxoquinazolin-3(4 H)-yl)acetamide]
124 | 0.404 | – | CC(C)c1nc2ccccc2c(=O)n1NC(=O)[C@@H]1C[C@@H]2CC[C@H]1C2 (racemic) [Example 22, (±)-endo-N-(2-isopropyl-4-oxoquinazolin-3(4H)-yl)bicyclo[2.2.1]heptane-2-carboxamide]
56.7 | 0.652 | – | Cc1cc2c(=O)n(NC(=O)CC34CC5CC(CC(C5)C3)C4)c(C)nc2s1 [Example 47, 2-(1-adamantyl)-N-(2,6-dimethyl-4-oxothieno[2,3-d]pyrimidin-3(4H)-yl)acetamide]
-43.5 | > 30 | – | O=C(Nn1c(-c2ccccc2)nc2ccccc2c1=O)C1C2CC3CC(C2)CC1C3 (stereo not shown) [Example 38, N-(4-oxo-2-phenylquinazolin-3(4H)-yl)adamantane-2-carboxamide]
– | 0.0868 | 150 | CC(C)c1nc2ccccc2c(=O)n1NC(=O)CC1CC2CCC1C2 (racemic) [Example 42, (±)-2-[(endo)-bicyclo[2.2.1]hept-2-yl]-N-(2-isopropyl-4-oxoquinazolin-3(4H)-yl)acetamide]
150 | 0.417 | – | CCc1nc2ccccc2c(=O)n1NC(=O)C[C@@H]1C[C@@H]2CC[C@@H](C2)C1 [Example 55, endo 2-[bicyclo[3.2.1]oct-3-yl]-N-(2-ethyl-4-oxoquinazolin-3(4H)-yl)acetamide]
171 | 0.277 | – | O=C(CCC1CCCC1)Nn1c(C23CC4CC(CC2C4)C3)nc2ccccc2c1=O [Example 3, 3-cyclopentyl-N-(2-hexahydro-2,5-methanopentalen-3a(1H)-yl-4-oxoquinazolin-3(4H)-yl)propanamide]
34.3 | 0.54 | – | O=C(Nn1c(-c2ccccc2)nc2ccccc2c1=O)C1CC2CCC1C2 (racemic) [Example 23, (±)-endo-N-(4-oxo-2-phenylquinazolin-3(4H)-yl)bicyclo[2.2.1]heptane-2-carboxamide]
61.1 | 2.5 | – | Cc1nc2sccc2c(=O)n1NC(=O)CC12CC3CC(CC(C3)C1)C2 [Example 17, 2-(1-adamantyl)-N-(2-methyl-4-oxothieno[2,3-d]pyrimidin-3(4H)-yl)acetamide]
-0.535 | > 31.6 | – | O=C(CC12CC3CC(CC(Cl)(C3)C1)C2)Nn1c(C2CC2)nc2cc(C(F)(F)F)ccc2c1=O [Example 50, 2-[3-chloro-1-adamantyl]-N-[2-cyclopropyl-4-oxo-7-(trifluoromethyl)quinazolin-3(4H)-yl]acetamide]
172 | 0.399 | – | CC(C)c1nc2ccccc2c(=O)n1NC(=O)CCC12CC3CC(CC(C3)C1)C2 [Example 13, 3-(1-adamantyl)-N-(2-isopropyl-4-oxoquinazolin-3(4H)-yl)propanamide]
81.8 | 2.01 | – | Cc1nc2sc3c(c2c(=O)n1NC(=O)CC12CC4CC(CC(C4)C1)C2)CCCC3 [Example 44, 2-(1-adamantyl)-N-(2-methyl-4-oxo-5,6,7,8-tetrahydro[1]benzothieno[2,3-d]pyrimidin-3(4 H)-yl)acetamide]
-23.5 | > 30 | – | O=C(Nn1c(-c2ccccc2)nc2ccccc2c1=O)[C@@H]1[C@H]2[C@@H]3CC[C@@H](C3)[C@@H]12 [Example 39, (exo,exo)-N-(4-oxo-2-phenylquinazolin-3(4H)-yl)tricyclo[3.2.1.0^2,4]octane-3-carboxamide]
